Assay results reported in patent US20160213692A1, “ADVANCED METHOD OF TREATMENT AND MANAGEMENT OF CHRONIC HEPATITIS C INFECTION” (priority 2015, published 2016).
Marks after values point to notes of the source that are not given here.

Key:
male Wistar rats [1] = test: Liver and renal function parameters in serum (Cobas e411) of treated rats
Procedure: (§1) A total of 80 male Wistar rats weighing 250-300 gm were used. All animals received humane care during the study protocol and during sacrifice.
(§2) The study duration was 5 weeks. Peg-INF-α-2a was prepared by diluting the content of a full syringe (180 μg/0.5 ml) in 9.5 ml sterile normal saline to prepare a final volume of 10 ml and the final concentration was 18 μg/ml. Each rat in the ‘P’, ‘PD’, ‘PR’ and ‘PRD’ groups received a weekly subcutaneous injection of 0.33 ml (6 μg/rat) for a total of 4 injections. The drug was prepared fresh on the day of use. […] Cholecalciferol ([…]) was prepared by adding 4 ml to 16 ml saline every morning to form a final concentration of 1000 IU/mL. Each rat in the ‘PD’, ‘PRD’, ‘PR’ and ‘VitD’ groups received 0.5 ml/day (500 IU/day) for the full study duration. Cholecalciferol, and its dose, was chosen over calcitriol, the hormonal form of vitamin D, to avoid the risk of soft tissue calcification (Salum et al, 2012). Following 4 injections, the rats were sacrificed in the fifth week at the time of the 5th injection would have been given. RBV and vitamin D3 were continued till the day before sacrifice.
(§3) All Rats were sacrificed on the same day under anesthesia using diethyl ether (Fisher Scientific UK Ltd, Loughborough, UK) a week after the last injection. 1 ml of blood was collected on EDTA for CBC and 3 ml of blood were collected in plane tube immediately after cutting the vena cava. Blood samples in plane tubes were centrifuged and the serum was stored in −20° C. for routine biochemistry and to measure serum concentrations of 25-OH vitamin D and EPO.
The quantitative measurement of serum liver enzymes (ALP, ALT and AST), total and indirect bilirubin, creatinine and urea was done using Cobas e411 (Roche Diagnostics International Ltd, Switzerland) according to the manufacturer protocol.

[2] = male, Wistar, rat, in vivo, 5 weeks
Procedure: as §1, §2
All Rats were sacrificed on the same day under anesthesia using diethyl ether (Fisher Scientific UK Ltd, Loughborough, UK) a week after the last injection. […]

male Wistar rats [3] = test: Haematological profile / erythrocyte indices (Sysmex XS 500) of treated rats
Procedure: as §1, §2, §3
Whole blood samples (1 ml) collected on EDTA were processed on Sysmex XS 500 (Sysmex, IL, USA) for the measurement of hemoglobin concentrations, RBCs count, packed cell volume (PCV), mean corpuscular volume (MCV), mean corpuscular hemoglobin (MCH) an mean corpuscular hemoglobin concentration (MCHC).

monkey red cells = settings: in vitro incubation; cited from earlier work
human red cells = settings: in vitro incubation; cited from earlier work
rat red cells = settings: in vitro incubation; cited from earlier work
[4] = whole blood, male Wistar rats, 5 weeks
[5] = serum, male Wistar rats, 5 weeks

Q: With NC(=O)c1ncn([C@@H]2O[C@H](CO)[C@@H](O)[C@H]2O)n1 [R group, ribavirin] as the molecule, how does the ALP (male Wistar rats [1]; rat, in vivo) read?
A: The ALP was 119 ± 9.9 IU/L.

Q: And the ALT (male Wistar rats [1]; rat, in vivo)?
A: The ALT was 66.1 ± 2.6 U/L.

Q: What about the AST (male Wistar rats [1]; rat, in vivo) of the same molecule?
A: The AST was 78.4 ± 3.2 U/L.

Q: What about the Creatinine (male Wistar rats [1]; rat, in vivo) of the same molecule?
A: The Creatinine was 0.22 ± 0.03 mg/dL.

Q: And the “Indirect Bilirubin” value (male Wistar rats [1]; rat, in vivo)?
A: The value was 0.17 ± 0.07 mg/dL.

Q: What about the “Total Bilirubin” value (male Wistar rats [1]; rat, in vivo) of the same molecule?
A: The value was 0.49 ± 0.14 mg/dL.

Q: And the Urea (male Wistar rats [1]; rat, in vivo)?
A: The Urea was 47.3 ± 5.8 mg/dL.

Q: What about the “25-OH Vitamin D” value [2] of the same molecule?
A: The value was 42 ± 10^c,e ng/mL.

Q: And the MCH (male Wistar rats [3]; rat, in vivo)?
A: Its MCH is 17.6 ± 0.7 pg.

Q: And the MCHC (male Wistar rats [3]; rat, in vivo)?
A: Its MCHC is 34.4 ± 0.9^c,e pg/dL.

Q: And the MCV (male Wistar rats [3]; rat, in vivo)?
A: Its MCV is 64.3 ± 4.2 fL.

Q: And the PCV (male Wistar rats [3]; rat, in vivo)?
A: Its PCV is 42.1 ± 2.7%.

Q: What about the RBCs (male Wistar rats [3]; rat, in vivo) of the same molecule?
A: Its RBCs is 7.58 ± 0.7^a,b,c,e ×10^6/μl.

Q: And the Hb (male Wistar rats [3]; [4])?
A: The Hb was 13.1 ± 1^a,b,c,e g/dL.

Q: What about the “initial drug content retained by red cells” value (“initial drug content retained” for short) (monkey red cells) of the same molecule?
A: The value was 77%.

Q: And the “initial drug content retained” value (human red cells)?
A: The value was 45%.

Q: What about the “initial drug content retained” value (rat red cells) of the same molecule?
A: The value was 20%.

Q: What does the source list for C=C1CC[C@H](O)C/C1=C/C=C1\CCC[C@]2(C)[C@@H]([C@H](C)CCCC(C)C)CC[C@@H]12 [VitD group, cholecalciferol]?
A: ALT (male Wistar rats [1]; [5]): 66.7 ± 4.2 U/L; AST (male Wistar rats [1]; [5]): 75.8 ± 4.2 U/L; Creatinine (male Wistar rats [1]; [5]): 0.2 ± 0.06 mg/dL; Indirect Bilirubin (male Wistar rats [1]; [5]): 0.15 ± 0.08 mg/dL; Total Bilirubin (male Wistar rats [1]; [5]): 0.51 ± 0.23 mg/dL; Urea (male Wistar rats [1]; [5]): 48.1 ± 5.2 mg/dL; ALP (male Wistar rats [1]; serum, male Wistar rats, 5 weeks, mean ± spread): 120.7 ± 12.3 IU/L; development of anemia (male Wistar rats [3]; addition of cholecalciferol 500 IU/day to Peg-INF-α and/or RBV, rats, 5 weeks): prevented the development of anemia; Hb (male Wistar rats [3]; [4]): 15.1 ± 0.7^d,f g/dL; MCH (male Wistar rats [3]; [4]): 17.4 ± 0.7 pg; MCHC (male Wistar rats [3]; [4]): 34 ± 0.8^c,e,g pg/dL; MCV (male Wistar rats [3]; [4]): 61.3 ± 1.8 fL; PCV (male Wistar rats [3]; [4]): 44.9 ± 1.8%; RBCs (male Wistar rats [3]; [4]): 8.9 ± 0.5^d,f ×10^6/μl
